Laboratory results published in US6548242B2, “Process for the sterilization of biological compositions and the product thereby” (priority 1990, dated 2003).
Where “and” joins values, the source holds several entries; their conditions need not be identical. Identical values can stand only once.

What was measured:
[1] = tested on: encephalomyocarditis virus (EMC); assay type: cell-based
[2] = tested on: bacteriophage M13; assay type: cell-based
[3] = tested on: lymphocytes; experiment: Lymphocyte inactivation, 3H thymidine uptake after mitogen stimulation; assay type: cell-based; conditions: 15 Gy γ-irradiation
[4] = tested on: platelets; experiment: Platelet aggregation response to arachidonic acid and ADP after γ-irradiation of PCs; assay type: cell-based; conditions: 2 mM rutin
[5] = tested on: red blood cell concentrate; experiment: Red cell hemolysis after X-irradiation of red blood cell concentrate; conditions: brominated hematoporphyrin derivative, 1 mm rutin
[6] = tested on: RBCCs; experiment: Extracellular (plasma) potassium of stored RBCCs
[7] = tested on: cell-free vesicular stomatitis virus (VSV); assay type: cell-based
[8] = tested on: platelets; experiment: Platelet aggregation in response to collagen after treatment of platelet concentrate; assay type: cell-based
[9] = tested on: cell-associated VSV; assay type: cell-based, vesicular stomatitis virus
[10] = tested on: platelets; experiment: Survival of infused radiolabeled UVB-irradiated platelets; assay type: in vivo, dogs; conditions: dog PCs, 36 mJ/cm^2 UVB in presence of 2 mM rutin, 51chromium label
[11] = 25 μg/ml AMT and 90 minutes of UVA in presence of flavonoid, overnight storage
[12] = 50 μg/ml AMT, 90 minute UVA, air, +0.5 mM Rutin, experiments 1-5
[13] = flavonoid present, no AMT/UVA treatment, overnight storage

C[C@@H]1O[C@@H](OC[C@H]2O[C@@H](Oc3c(-c4ccc(O)c(O)c4)oc4cc(O)cc(O)c4c3=O)[C@H](O)[C@@H](O)[C@@H]2O)[C@H](O)[C@H](O)[C@H]1O [rutin]
Virus Kill (log10) EMC [1]: ≧7.7 log10
LOG10 VIRUS KILL M13 [2]: 6 LOG10 and 3 LOG10 and 5 LOG10
3H thymidine uptake retained by irradiated lymphocytes ([3]; PCs, independent of presence or concentration of rutin): 1.5%
3H thymidine uptake retained by irradiated lymphocytes ([3]; RBCCs, independent of presence or concentration of rutin (0.5, 1 or 2 mM)): 1.5%
rate of aggregation ([4]; 50 Gy γ-irradiation, 3 day storage): 80 % of the control
Platelet aggregation ([4]; γ-irradiation 15-50 Gy, after 1 day): 95%
red cell hemolysis [5]: less than 2%
plasma K+ ([6]; RBCC, AlPcS4 treatment then γ-irradiation 25 Gy, rutin present during γ-irradiation and storage, 2 days): 25 mM
plasma K+ ([6]; RBCC, AlPcS4 treatment then γ-irradiation 25 Gy, rutin present during γ-irradiation and storage, 7 days): 40 mM
plasma K+ ([6]; RBCCs, 50 Gy γ-irradiation, 2 mM rutin present during treatment): 40 mM
Extracellular potassium ([6]; RBCCs, γ-irradiation, 2 mM rutin): decreased to control levels
LOG10 VIRUS KILL VSV [7]: ≧6 LOG10
Virus Kill (log10) VSV [7]: ≧5.4 log10
kill of VSV [7]: exceeded 5 log10
% Untreated Control - Extent of Aggregation Response to Collagen, treated [8, 11]: 100/100 % Untreated Control
% Untreated Control - Rate of Aggregation Response to Collagen, treated [8, 11]: 100/100 % Untreated Control
Platelet aggregation, first value of pair (extent as in Table III) [8, 12]: 95 and 96/96 and 100 and 100/100 and 98
Platelet aggregation, second value of pair (rate as in Table III) [8, 12]: 90 and 96/96 and 84 and 100/100 and 95
agg response ([8]; Platelet Conc., 50 μg/ml AMT + 57 J/cm^2 UVA, 0.35 mM rutin): 85%
% Untreated Control - Extent of Aggregation Response to Collagen, untreated [8, 13]: 100/100 % Untreated Control
% Untreated Control - Rate of Aggregation Response to Collagen, untreated [8, 13]: 100/100 % Untreated Control
aggregation function ([8]; platelet conc., 25, 50 or 100 μg/ml AMT, 90 min UVA, 0.7 mM rutin): more than 80 % of the control
inactivation of cell-associated VSV [9]: ~6 log10
Survival of UV-exposed donor platelets [10]: 5 days
